Reference: publication PMC9844538 (Nature chemical biology, 2022)
Starred links: 1 amine or outer side, 2 acyl side, 3 side chain; linkers in the order of their positions; H or OH if unused. Positions of bridges follow the written chain, without caps; N, C: chain ends. Non-standard residues stand in square brackets, D forms with d. Residues, ends and D or L forms follow the SMILES beside them. *: point of attachment. βAsp = O=C(O)[C@H](CC(=O)[*:2])N[*:1]; His(π-Me) = Cn1cncc1C[C@H](N)C(=O)O; For = O=C*

Assays:
[1] = system: M. tuberculosis (GyrA D94N); type: cell-based, Mycobacterium tuberculosis
[2] = system: Mycobacterium tuberculosis H37Rv mc^26020 gyrA G88S; assay: MIC, broth microdilution; type: cell-based
[3] = system: Mycobacterium tuberculosis H37Rv mc^26020 gyrA G88C; assay: MIC, broth microdilution; type: cell-based
[4] = system: M. tuberculosis bacA (Rv1819c) mutants (L469P, L470P and S577R); type: cell-based, Mycobacterium tuberculosis

With `C[C@@H](O)[C@H](NC(=O)[C@H](Cc1c[nH]c2ccccc12)NC=O)C(=O)N[C@H](CCCNC(=N)N)C(=O)N[C@@H]1C(=O)N[C@@H](Cc2cncn2C)C(=O)N[C@H](C(=O)O)CC(=O)N[C@H](CO)C(=O)N[C@@H](Cc2ccccc2)C(=O)NCC(=O)N[C@H](CCCNC(=N)N)C(=O)N[C@@H](CO)C(=O)N[C@H](C(=O)O)CC(=O)O[C@@H]1C` [evybactin] (For-WT[dR]T[His(π-Me)][βAsp][dS]FG[dR]S[βAsp]; ester 4-C) the “effect of GyrA D94N mutation on susceptibility” value [1] was “did not have any effect”.

`COc1c(N2C[C@@H]3CCCN[C@@H]3C2)c(F)cc2c(=O)c(C(=O)O)cn(C3CC3)c12` [moxifloxacin] was tested, and the “susceptibility of GyrA G88S mutant” value [2] was “more susceptible” and the “susceptibility of GyrA G88C mutant” value [3] was “resistant”.

bleomycin was tested, and the “MIC (after shift)” value [4] was 1 µg/mL.
